“Also recorded” adds a separate entry of the source.
Columns and labels:
HEK 293 T cells [1] = assay: Cell cycle analysis, HEK 293 T; assay type: cell-based, human; conditions: PCI-34051 (20 μM), 48 h
Description: (§1) Cells (HeLa & HEK 293 T) were grown to attain 70% confluency and were serum starved for 12 h, followed by treatments with PCI-34051 (20 μM) and Paclitaxel (20 μM) respectively for 48 h and processed for cell cycle analysis.

[2] = system: acetylated alpha tubulin, HEK 293 T; assay: Immunoblot of acetylated alpha tubulin in HEK 293 T cells; assay type: cell-based, human; conditions: HEK 293 T; for levels of acetylated alpha tubulin: Forskolin (10 μM), 45 min, immunoblot normalized with GAPDH
Description: (§2) Human embryonic kidney cells, HEK293T, human cervical carcinoma cells, HeLa, human breast cancer cells, MDA-MB 231, human lung adenocarcinoma cellsA549, chronic myeloid leukemia cells, K562, and human colon cancer cells, HCT11, were obtained from National Centre for Cell Sciences (NCCS), Pune, India. Cell line authentication by STR analysis was performed for 10 genetic loci for all the cell lines by Life code, Genomic technologies Pvt. Ltd., and tested for mycoplasma negative by performing PCR (mycoplasma specific genes) using EZdetect PCR kit for mycoplasma detection (CCK009). All the cells were cultured in high glucose DMEM medium containing 10% foetal bovine serum and 1% Penicillin/streptomycin (Himedia). Cells were seeded in 60 mm dishes and upon attaining 80–90% confluency, treatment was given with PCI-34051(Cayman Chemicals) (10 μM/20 μM) and tubastatin (5 μM) for 24 h or both in combination (PCI-34051 and Tubastatin) and Forskolin (Sigma) (10 μM) for 45 min independently along with untreated control as described earlier.
(§3) Total, cytoplasmic and nuclear fractions of HeLa or HEK 293 T cells treated with or without PCI-34051 (20 μM), [12] tubastatin (5 μM) and/or forskolin (10 μM) were prepared as described previously. Total protein samples of HEK 293 T, HeLa, MDAMB 231, K562, A549 and HCT11 cells / immunoprecipitated HDAC8 and HDAC6 samples from both HeLa and HEK 293 T lysates / HDAC8 siRNA transfected HEK 293 T and HeLa lysates were also prepared. The proteins were separated on 10 or 12% SDS-PAGE, transferred on to nitrocellulose membrane and probed with primary antibodies of HDAC8, Beta actin, Alpha tubulin, anti-acetylated alpha tubulin, HDAC6 and GAPDH. The bands were visualized using chemiluminiscence after probing with HRP-conjugated secondary antibody.
(§4) Source for siRNA oligonucleotides were considered from with sequence, HDAC8 Sense: […] and Anti-sense: […]. The oligonucleotides were converted into siRNA by following standard protocol as described earlier. HeLa and HEK 293 T cells were transfected with HDAC8 siRNA (10–15 μg/100 mm dish) using lipofectamine 2000 (Invitrogen), and considering untransfected as control. Cells were harvested after 72 h of post-transfection and processed for total RNA and protein isolation.

HEK 293 T cells [3] = assay: Cell morphology analysis, HEK 293 T; assay type: cell-based, human; conditions: 20 μM, 24 & 48 h, vs control
Description: (§5) HeLa and HEK 293 T cells are cultured in 6 well plates till attaining 70% confluency. Cells are starved for 12 h without serum and treated with PCI-34051 (20 μM) and Paclitaxel (20 μM) along with untreated control for 24 & 48 h. Examined difference in the morphology was captured by Olympus CKX41, ProgRes CT3 phase contrast microscope at 10X focussed lens.

HeLa cells [4] = assay: Cell morphology analysis, HeLa; assay type: cell-based, human; conditions: 20 μM; for cell morphology (cell size): HeLa, 24 & 48 h, vs control
Description: as §5

HDAC8 [5] = conditions: cited from earlier work
Excerpt: The cytoplasmic localization of HDAC8 was further confirmed by immunoblot analysis using total, cytoplasmic and nuclear protein fractions of HEK 293 T and HeLa (Fig. 1d). […] With forskolin treatment, there was significant inc ... || In silico and spectroscopy based results have confirmed the interaction of HDAC8 with alpha tubulin & acetylated alpha tubulin peptide. To further validate the functional interaction we carried out IP and co-IP experiments with HDAC8 and acetylated alpha tubulin (ac-tubulin) antibodies. […] Densitometry results for the fold expression ...

HeLa cells [6] = assay: Cell migration (wound) assay in HeLa cells; assay type: cell-based, human; conditions: for migration efficiency (rank order): PCI-34051 (10 μM) or Paclitaxel (10 μM), 24 and 48 h
Description: HeLa cells are grown in 6 well plates in duplicates till it attains 90% confluency and starved with serum free media for overnight. Using a sterile 200 μl tip wound is created by drawing straight lines at three different points in each well. Detached cells are aspirated and washed three times with 1XPBS. Cells are treated with PCI-34051 (10 μM & 20 μM) and Paclitaxel (10 μM & 20 μM) dissolved in 2% FBS respectively along with control (untreated). Migrated cells into the wound were examined by capturing images using Olympus CKX41, ProgRes CT3 phase contrast microscope after 24 and 48 h.

[7] = system: acetylated alpha tubulin, HeLa; assay: Immunoblot of acetylated alpha tubulin in HeLa cells; assay type: cell-based, human; conditions: for levels of acetylated alpha tubulin: Forskolin (10 μM), 45 min, immunoblot normalized with GAPDH
Description: as §2, §3, §4

HeLa cells [8] = assay: Cell cycle analysis, HeLa; assay type: cell-based, human; conditions: PCI-34051 (20 μM), 48 h, vs untreated control
Description: as §1

HDAC8 [9] = assay: Immunofluorescence / confocal localization of HDAC8 in HeLa and HEK 293 T cells; assay type: cell-based, human; conditions: Forskolin (10 μM), 45 min
Description: as §2
HeLa and HEK 293 T cells (Control, Forskolin, PCI-34051 (20 μM) treated) were fixed with 4% formaldehyde in PBS for 20 min at RT followed by permeabilization with 0.25% TritonX-100 in PBS. […]

HDAC8 [10] = assay: HDAC8 FLUOR DE LYS fluorometric enzyme activity assay on immunoprecipitated HDAC8 fractions; assay type: biochemical, human; conditions: Forskolin (10 μM); for HDAC8 enzyme activity, nuclear fraction: immunoprecipitated nuclear fraction (5 μg), vs untreated
Description: HDAC8 enzyme activity assay was performed using HDAC8 FLUOR DE LYS fluorometric assay kit (Cat# BML-AK518–0001) for Control, PCI-34051(10 μM), Forskolin (10 μM), Tubastatin (5 μM) - treated and immunoprecipitated samples of either total, cytoplasmic and nuclear fractions of HeLa and HEK 293 T cells using anti-HDAC8 antibody and anti-HDAC6 (2 μg antibody for ~ 500 μg) according to the manufacturer’s protocol.

tubulin polymerization = conditions: cited from earlier work
Excerpt: Tubulins are one of the major cytoskeletal proteins and consists of alpha, beta and gamma tubulin proteins in the family. Acetylated alpha tubulin is known to stabilize microtubules and effect intracellular transport, cell migration and primary determinant for cell morphology. HDAC8 inhibition impedes the migration property in HeLa in turn affecting the morphology.

## COc1ccc(Cn2ccc3ccc(C(=O)NO)cc32)cc1 [PCI-34051]
HEK 293 T cells [1]
  mitotic phase of cell cycle: did not show any mitotic phase reduction; also recorded: no major significant change in the mitotic phase
  sub G0/G1 phase: significant increase in the sub G0/G1 phase
[2]; PCI-34051 (20 μM), 24 h
  acetylated alpha tubulin levels: no significant increase
HEK 293 T cells [3]
  cell morphology (aggregation / clump formation): clump formation; also recorded: cell aggregation
HeLa cells [4]; HeLa (shrinkage) and HEK 293 T (clump formation)
  cell morphology effect compared with positive control: quite comparable to that of paclitaxel treated condition
HeLa cells [4]
  cell morphology (cell size): reduced (shrinking) cell size; also recorded: decreased cell size (shrinking)
HDAC8 [5]
  HDAC8 selectivity: HDAC8 selective inhibitor
HeLa cells [6]; PCI-34051 (10 μM & 20 μM), upto 48 h
  migration efficiency: significantly decreased
HeLa cells [6]
  migration efficiency (rank order): Control> > Paclitaxel>PCI-34051
HeLa cells [6]; PCI-34051, upto 48 h
  cell size during migration assay: notable decrease in cell size
[7]; PCI-34051 (20 μM) vs tubastatin, 24 h
  acetylated alpha tubulin levels, compared to tubastatin treated condition: Increased ac-alpha tubulin levels
[7]; PCI-34051 (20 μM), 24 h
  acetylated alpha tubulin levels: ac-alpha tubulin levels increase; also recorded: increased acetylated alpha tubulin levels; also recorded: increased the acetylation of alpha tubulin in HeLa
HeLa cells [8]
  mitotic phase of cell cycle: significant (p < 0.05) reduction in mitotic phase
  sub G0/G1 peak: increased sub G0/G1 peak

## C=C[C@@]1(C)CC(=O)[C@]2(O)[C@@]3(C)[C@@H](O)CCC(C)(C)[C@@H]3[C@H](O)[C@H](OC(C)=O)[C@@]2(C)O1 [Forskolin]
HDAC8 [9]
  localization of HDAC8: no difference in localization of HDAC8
[2]
  levels of acetylated alpha tubulin: ac-alpha tubulin levels increase
[2]; listed as forskolin
  levels of acetylated alpha tubulin: increased significantly
HDAC8 [5]; by phosphorylation (PKA)
  effect on HDAC8: known to inactivate HDAC8 by phosphorylation
[7]
  levels of acetylated alpha tubulin: ac-alpha tubulin levels increase
[7]; listed as forskolin
  levels of acetylated alpha tubulin: increased significantly; also recorded: significant increase of acetylated tubulin expression
HDAC8 [10]; HeLa and HEK 293 T, cytoplasmic fraction (5 μg)
  cytoplasmic HDAC8 activity: decreased
HDAC8 [10]; HeLa and HEK 293 T, nuclear fraction (5 μg)
  nuclear HDAC8 enzyme activity (discussion statement): increased
HDAC8 [10]; HEK 293 T
  HDAC8 enzyme activity, nuclear fraction: significant increase in the nuclear fraction
HDAC8 [10]; HeLa
  HDAC8 enzyme activity, nuclear fraction: significant increase in the nuclear fraction

## CC(=O)O[C@H]1C(=O)[C@@]2(C)[C@H]([C@H](OC(=O)c3ccccc3)[C@]3(O)C[C@H](OC(=O)[C@H](O)[C@@H](NC(=O)c4ccccc4)c4ccccc4)C(C)=C1C3(C)C)[C@]1(OC(C)=O)CO[C@@H]1C[C@@H]2O [Paclitaxel]
Tubulin polymerization
  consequence of inhibition of tubulin polymerization: cell-cycle arrest and cell death
HEK 293 T cells [3]
  cell morphology (aggregation / clump formation): clump formation; also recorded: cell aggregation
HeLa cells [4]
  cell morphology (cell size): reduced (shrinking) cell size; also recorded: decreased cell size (shrinking)
HeLa cells [6]
  migration efficiency (rank order): Control> > Paclitaxel>PCI-34051

— publication PMC5930436, “Overexpressed HDAC8 in cervical cancer cells shows functional redundancy of tubulin deacetylation with HDAC6” (Cell Communication and Signaling : CCS, 2018)
